Test system: KRAS mRNA
Assay: Reduction of KRAS mRNA by KRAS siRNA delivered into cells, quantitative real-time PCR
Assay type: cell-based, human
Conditions: H358 cells, 100 nM, 16 hours, qRT-PCR, 18S rRNA as housekeeping gene
Method: H358 cells were seeded at a density of 70% in a 6-well plate. After 16 hours, cell starvation was performed overnight with DMEM containing 0.5% FBS. The cells were treated with a medium containing nanoparticles comprising KRAS siRNA and a peptide-lipid conjugate at a concentration of 100 nM for 16 hours. As a control, 100 nM of siRNA mixed with Lipofectamine was used.
Quantitative real-time PCR was performed in the following manner. For mRNA quantification, total RNA was isolated using the Qiagen RNeasy kit. cDNA was synthesized using Verso cDNA kit (Thermo Scientific) using 500 ng RNA. mRNA values were measured with a 7500 Fast Real-Time PCR System (Applied Biosystems) based on SYBR Green.
18S rRNA was used as a housekeeping gene (control gene). PCR was performed using reverse-transcribed RNA and 100 ng/μL of sense and antisense primers (total volume 20 μL) were used. 40 cycles were performed and each cycle included denaturation at 95° ° C. for 15 seconds, annealing for 1 minute, and extension at 60° ° C.

“siRNA alone: siRNA that inhibits the expression of KRAS (SEQ ID NO: 19 sense, SEQ ID NO: 20 antisense), without carrier (sense CAGCUAAUUCAGAAUCAUU; antisense AAUGAUUCUGAAUUAGCUG; listed as RNA, chemistry not given here)” was tested, and the “KRAS mRNA” value was “no effect”.

From US20240269302A1, “NANOPARTICLE COMPRISING PEPTIDE-LIPID CONJUGATE FOR DELIVERING OLIGONUCLEOTIDE INTO TARGET CELL AND PHARMACEUTICAL COMPOSITION COMPRISING SAME” (NIBEC CO., LTD., priority 2021, published 2024)
